As a reminder, the IC50 is the concentration that gives 50% inhibition. High values mean weaker potency, low ones greater potency.

The values that follow come from article PMC6271467, “The Anthraquinone Derivatives from the Fungus Alternaria sp. XZSBG-1 from the Saline Lake in Bange, Tibet, China” (Molecules, 2014).

Holding throughout (assay type): cell-based
The test system of one test is MCF-7/ADR. Briefly: Cytotoxicity, MTT assay, MCF-7/ADR. The following applies: Homo sapiens, NCI/ADR-RES, 48 h exposure, MCF-7/ADR cells. On the procedure:
(§1) Compounds 1–11 were evaluated for cytotoxic activity against several human cancer cell lines by MTT assay. […] The other compounds show no notable inhibitory activity against any tested cancer cell lines.
(§2) MCF-7/ADR, HeLa, HCT-116 cell lines were cultured in Dulbeccos’ modification Eagle’s medium (DMEM, Invitrogen, Carlsbad, CA, USA) supplemented with 10% fetal bovine serum (FBS, Hyclone, Logan, UT, USA), 2 mM L-glutamine, 100 μg/mL streptomycin and 100 U/mL penicillin (Invitrogen). The cells were incubated at 37 °C in a humidified atmosphere with 5% CO2.
(§3) Cells were harvested during logarithmic growth phase and seeded in 96-well plates at a density of 1 × 10^4 cells/mL, and cultured at 37 °C in a humidified incubator (5% CO2) for 24 h, followed by exposure to various concentrations of compounds tested for 48 h. Subsequently 20 μL of MTT (Genview, Houston, TX, USA) solution (5 mg/mL) was added to each well and mixed, the cells were then incubated for an additional 4 h. Culture supernatant was moved, 150 μL of DMSO (Sangon Biotech, Shanghai, China) was added to each well to fully dissolve the MTT-formazan crystals. Cell growth inhibition was determined by measuring the absorbance (Abs) at λ = 570 nm using a microplate reader and calculated according to the following equation: Growth inhibition = (1 − OD of treated cells/OD of control cells) × 100%
(§4) The half maximal inhibitory concentrations (IC50) were obtained from liner regression analysis of the concentration-response curves plotted for each tested compound [17, 18].
Background: Formazan colour is commonly taken as a measure of viable cells.

Another test has as its system HCT-116. The test can be described thus: Cytotoxicity, MTT assay, HCT-116. The following applies: Homo sapiens, 48 h exposure, HCT-116 cells. On the procedure:
as §1, §2, §3, §4

A further test has as its system HeLa. The test can be described thus: Cytotoxicity, MTT assay, HeLa. The following applies: Homo sapiens, 48 h exposure, HeLa cells. As for the experimental part: as §1, §2, §3, §4

In the case of `COc1cc(O)c2c(c1)C(=O)C13OC1(C2=O)[C@H](O)[C@@H](O)[C@@](C)(O)[C@H]3O` (relative stereo) [Compound 1, (1R*,2R*,3R*,4R*)-1,2,3,4,8-pentahydroxy-6-methoxy-3-methyl-1,2,3,4-tetrahydro-4a,9a-epoxyanthracene-9,10-dione], the results for the IC50 in the test on MCF-7/ADR, with HCT-116 and in the test on HeLa were 18.5 µM, 23.2 ± 2.85 µM and 43.7 ± 4.02 µM, respectively.
`COc1cc(O)c2c(c1)C(=O)C1=C(C2=O)[C@H]([C@H]2C3=C(C(=O)c4cc(OC)cc(O)c4C3=O)[C@H](O)[C@](C)(O)[C@H]2O)[C@H](O)[C@@](C)(O)[C@H]1O` (relative stereo) [Compound 2, (1S*,1'S*,2R*,2'R*,3S*,3'S*,4S*,4'S*)-1,1',2,2',3,3',5,5'-octahydroxy-7,7'-dimethoxy-2,2'-dimethyl-1,1',2,2',3,3',4,4'-octahydro-[4,4'-bianthracene]-9,9',10,10'-tetraone]: the half-maximal inhibitory concentration (IC50) is more than 100 µM in the test on MCF-7/ADR, more than 50 µM with HCT-116 and more than 50 µM in the test on HeLa.
In the case of `COc1cc(O)c2c(c1-c1c(OC)cc(O)c3c1C(=O)c1cc(C)c(O)cc1C3=O)C(=O)C1=C(C2=O)[C@H](O)[C@@H](O)[C@@](C)(O)[C@H]1O` (relative stereo) [Compound 3, (1S*,2R*,3S*,4S*)-1,2,2',3,4,8,8'-heptahydroxy-6,6'-dimethoxy-3,3'-dimethyl-1,2,3,4-tetrahydro-[5,5'-bianthracene]-9,9',10,10'-tetraone], the results for the IC50 in the test with HCT-116 and in the test with HeLa were 32.4 ± 1.57 µM and more than 50 µM, respectively.
Consider `COc1cc(O)c2c(c1-c1c(OC)cc(O)c3c1C(=O)c1cc(C)c(O)cc1C3=O)C(=O)C1=C(C2=O)[C@@H](O)[C@@H](O)[C@@](C)(O)[C@H]1O` (relative stereo) [Compound 4, (1R*,2R*,3S*,4S*)-1,2,2',3,4,8,8'-heptahydroxy-6,6'-dimethoxy-3,3' dimethyl-1,2,3,4-tetrahydro-5,5'-bianthracene-9,9',10,10'-tetraone], for which the half-maximal inhibitory concentration (IC50) in the test on MCF-7/ADR was more than 50 µM; in the test with HCT-116, more than 50 µM; in the test on HeLa, more than 100 µM.
On to `COc1cc2c(c(-c3c(O)c(OC)cc4c3C(=O)C3=C(C4=O)[C@@H](O)[C@H](O)[C@](C)(O)[C@@H]3O)c1O)C(=O)C1=C(C2=O)[C@@H](O)[C@H](O)[C@](C)(O)[C@@H]1O` [Compound 5, alterporriol E], for which the IC50 in the test on MCF-7/ADR, with HCT-116 and in the test on HeLa was more than 100 µM throughout.
For the compound `COc1cc(O)c2c(c1-c1c(OC)cc(O)c3c1C(=O)C1=C(C3=O)[C@@H](O)[C@H](O)[C@](C)(O)[C@@H]1O)C(=O)C1=C(C2=O)[C@@H](O)[C@H](O)[C@](C)(O)[C@@H]1O` [Compound 6, alterporriol D], the IC50 with MCF-7/ADR, in the test on HCT-116 and in the test on HeLa was more than 100 µM each time.
Regarding `COc1cc(O)c2c(c1)C(=O)c1cc(C)c(O)c(-c3c(OC)cc(O)c4c3C(=O)C3=C(C4=O)[C@H](O)[C@@H](O)[C@@](C)(O)[C@H]3O)c1C2=O` [Compound 7, alterporriol N], the IC50 in the test with MCF-7/ADR, in the test with HCT-116 and in the test with HeLa was more than 100 µM in each case.
`COc1cc(O)c2c(c1-c1c(OC)cc(O)c3c1C(=O)c1cc(C)c(O)cc1C3=O)C(=O)C1=C(C2=O)[C@@H](O)[C@H](O)[C@](C)(O)[C@H]1O` [Compound 8, alterporriol A]: the IC50 with MCF-7/ADR was 45 µM; in the test with HCT-116 it was more than 50 µM; in the test on HeLa it was more than 50 µM.
Regarding `COc1cc(O)c2c(c1)C(=O)C1=C(C[C@@H](O)[C@@](C)(O)[C@@H]1O)C2=O` [Compound 9, altersolanol C], the values for the IC50 in the test on MCF-7/ADR, in the test with HCT-116 and in the test with HeLa were more than 100 µM, 3.03 ± 0.05 µM and 8.09 ± 0.89 µM, respectively.
`COc1cc(O)c2c(c1)C(=O)C1=C(C2=O)[C@H](O)[C@@H](O)[C@@](C)(O)[C@@H]1O` [Compound 10, altersolanol A]: the IC50 in the test on MCF-7/ADR, in the test with HCT-116 and with HeLa was more than 100 µM throughout.
Take `COc1cc(O)c2c(c1)C(=O)c1cc(C)c(O)cc1C2=O` [Compound 11, macrosporin]: the IC50 in the test with MCF-7/ADR, in the test with HCT-116 and in the test on HeLa was more than 100 µM in each case.
With `COc1cccc2c1C(=O)c1c(O)c3c(c(O)c1C2=O)C[C@@](O)(C(=O)CO)C[C@@H]3O[C@H]1C[C@H](N)[C@@H](O)[C@H](C)O1` [EPI, Epirubicin, reference compound], the IC50 with MCF-7/ADR was determined as 2.36 µM; with HCT-116, 0.96 ± 0.02 µM; with HeLa, 0.48 ± 0.03 µM.
